Source: ChEMBL document CHEMBL1949499, “Nicotinic acids: liver-targeted SCD inhibitors with preclinical anti-diabetic efficacy” (Bioorg Med Chem Lett, 2011)

Legend:
[1] = Drug uptake in C57/BL6 mouse harderian glands at 30 mg/kg, po after 24 hrs; format: ADME, organism-based, Harderian gland; set-up: dose 30 mg/kg, route oral; conditions: read-out: Drug uptake
[2] = Drug uptake in C57/BL6 mouse heart at 30 mg/kg, po after 2 hrs; format: ADME, organism-based; set-up: dose 30 mg/kg, route oral; conditions: read-out: Drug uptake
[3] = Ratio of drug uptake in left median liver lobe to harderian gland in C57/BL6 mouse at 10 mg/kg, po after 6 hrs; format: ADME, organism-based; set-up: dose 10 mg/kg, route oral; conditions: in vivo
[4] = Drug uptake in C57/BL6 mouse left median liver lobe at 30 mg/kg, po after 2 hrs; format: ADME, organism-based; set-up: dose 30 mg/kg, route oral; conditions: read-out: Drug uptake
[5] = Drug uptake in C57/BL6 mouse skin at 30 mg/kg, po after 24 hrs; format: ADME, organism-based, Zone of skin; set-up: dose 30 mg/kg, route oral; conditions: read-out: Drug uptake
[6] = Oral bioavailability in Sprague-Dawley rat plasma at 10 mg/kg; format: ADME, organism-based
[7] = Drug uptake in C57/BL6 mouse left epididymal fat at 30 mg/kg, po after 2 hrs; format: ADME, organism-based, Epididymal fat pad; set-up: dose 30 mg/kg, route oral; conditions: male, read-out: Drug uptake
Stearoyl-CoA desaturase = target: T1, Stearoyl-CoA desaturase (Homo sapiens, UniProt O00767); experiment: Inhibition of human SCD1
T1 sequence (O00767 whole entry): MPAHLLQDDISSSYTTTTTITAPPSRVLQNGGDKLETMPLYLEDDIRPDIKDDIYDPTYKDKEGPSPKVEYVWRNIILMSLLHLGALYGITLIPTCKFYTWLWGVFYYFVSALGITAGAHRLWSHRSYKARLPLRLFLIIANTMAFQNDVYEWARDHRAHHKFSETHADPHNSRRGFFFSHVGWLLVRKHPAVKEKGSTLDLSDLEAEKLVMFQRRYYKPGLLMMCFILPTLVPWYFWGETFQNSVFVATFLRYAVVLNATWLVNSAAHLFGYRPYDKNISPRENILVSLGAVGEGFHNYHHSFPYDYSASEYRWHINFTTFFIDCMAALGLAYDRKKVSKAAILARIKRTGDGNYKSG

[8] = Drug uptake in C57/BL6 mouse left epididymal fat at 30 mg/kg, po after 24 hrs; format: ADME, organism-based, Epididymal fat pad; set-up: dose 30 mg/kg, route oral; conditions: male, read-out: Drug uptake
Mus musculus [9] = experiment: Inhibition of SCD activity in high sucrose/fat free diet fed po dosed C57/BL6 mouse liver assessed as reduction in conversion of [14C]stearic acid to [14C]oleic acid; format: functional, organism-based
[10] = Drug uptake in C57/BL6 mouse kidney at 30 mg/kg, po after 6 hrs; format: ADME, organism-based; set-up: dose 30 mg/kg, route oral; conditions: read-out: Drug uptake
[11] = Drug uptake in C57/BL6 mouse harderian glands at 30 mg/kg, po after 2 hrs; format: ADME, organism-based, Harderian gland; set-up: dose 30 mg/kg, route oral; conditions: read-out: Drug uptake
HepG2 = experiment: Selectivity ratio of IC50 for human SCD1 expressed in human HepG2 cells to IC50 for rat SCD1 in Sprague-Dawley rat hepatocytes; format: cell-based
[12] = Oral bioavailability in C57/BL6 mouse plasma at 10 mg/kg; format: ADME, organism-based
[13] = Drug uptake in high sucrose/fat free diet fed C57/BL6 mouse liver at 100 mg/kg, po after 3 hrs; format: ADME, organism-based; set-up: dose 100 mg/kg, route oral; conditions: read-out: Drug uptake
[14] = target: T2, Stearoyl-CoA desaturase 5 (Homo sapiens, UniProt Q86SK9); experiment: Inhibition of human SCD5
T2 sequence (Q86SK9 whole entry): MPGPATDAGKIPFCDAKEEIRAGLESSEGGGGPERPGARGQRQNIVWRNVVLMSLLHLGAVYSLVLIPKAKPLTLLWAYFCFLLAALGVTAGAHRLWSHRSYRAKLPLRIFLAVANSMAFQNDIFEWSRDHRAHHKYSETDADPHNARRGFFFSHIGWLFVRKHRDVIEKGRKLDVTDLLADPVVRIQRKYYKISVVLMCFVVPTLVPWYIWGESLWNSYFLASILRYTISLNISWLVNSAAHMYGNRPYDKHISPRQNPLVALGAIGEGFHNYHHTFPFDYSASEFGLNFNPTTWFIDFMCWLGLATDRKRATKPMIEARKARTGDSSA

[15] = Drug uptake in C57/BL6 mouse kidney at 30 mg/kg, po after 24 hrs; format: ADME, organism-based; set-up: dose 30 mg/kg, route oral; conditions: read-out: Drug uptake
[16] = Drug uptake in C57/BL6 mouse left median liver lobe at 30 mg/kg, po after 24 hrs; format: ADME, organism-based; set-up: dose 30 mg/kg, route oral; conditions: read-out: Drug uptake
[17] = Plasma concentration in C57/BL6 mouse at 30 mg/kg, po after 6 hrs; format: ADME, organism-based; set-up: dose 30 mg/kg, route oral
Acyl-CoA desaturase 1 = target: T3, Acyl-CoA desaturase 1 (Rattus norvegicus, UniProt P07308); experiment: Inhibition of SCD1 in Sprague-Dawley rat hepatocytes assessed as conversion of [14C]oleic acid formation by HPLC analysis; format: cell-based, Hepatocyte
T3 sequence (P07308 whole entry): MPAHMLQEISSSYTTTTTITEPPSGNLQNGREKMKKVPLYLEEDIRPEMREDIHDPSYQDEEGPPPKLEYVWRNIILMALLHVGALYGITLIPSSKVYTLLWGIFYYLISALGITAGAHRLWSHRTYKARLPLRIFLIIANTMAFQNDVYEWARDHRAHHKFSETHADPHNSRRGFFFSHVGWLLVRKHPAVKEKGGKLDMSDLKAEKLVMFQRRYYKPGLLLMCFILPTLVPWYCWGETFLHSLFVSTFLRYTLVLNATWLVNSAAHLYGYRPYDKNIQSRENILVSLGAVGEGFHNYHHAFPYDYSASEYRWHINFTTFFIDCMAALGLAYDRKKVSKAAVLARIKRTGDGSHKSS

Mus musculus [18] = experiment: Acute antidiabetic activity in high fat diet fed C57/BL6 mouse eDIO model assessed as increase in glucose clearance at 30 mg/kg, po administered 1 hr prior to glucose challenge by oGTT assay; format: functional
[19] = Drug uptake in C57/BL6 mouse harderian glands at 30 mg/kg, po after 6 hrs; format: ADME, organism-based, Harderian gland; set-up: dose 30 mg/kg, route oral; conditions: read-out: Drug uptake
[20] = Drug uptake in C57/BL6 mouse heart at 30 mg/kg, po after 24 hrs; format: ADME, organism-based; set-up: dose 30 mg/kg, route oral; conditions: read-out: Drug uptake
[21] = target: ATP-binding cassette sub-family C member 2 (Homo sapiens, UniProt Q92887); experiment: Binding affinity to MRP2 expressed in MDCK2 cells coexpressing OATP1B3; format: cell-based; conditions: dog, mdck-ii
ATP-binding cassette sub-family C member 2, sequence (Q92887 whole entry): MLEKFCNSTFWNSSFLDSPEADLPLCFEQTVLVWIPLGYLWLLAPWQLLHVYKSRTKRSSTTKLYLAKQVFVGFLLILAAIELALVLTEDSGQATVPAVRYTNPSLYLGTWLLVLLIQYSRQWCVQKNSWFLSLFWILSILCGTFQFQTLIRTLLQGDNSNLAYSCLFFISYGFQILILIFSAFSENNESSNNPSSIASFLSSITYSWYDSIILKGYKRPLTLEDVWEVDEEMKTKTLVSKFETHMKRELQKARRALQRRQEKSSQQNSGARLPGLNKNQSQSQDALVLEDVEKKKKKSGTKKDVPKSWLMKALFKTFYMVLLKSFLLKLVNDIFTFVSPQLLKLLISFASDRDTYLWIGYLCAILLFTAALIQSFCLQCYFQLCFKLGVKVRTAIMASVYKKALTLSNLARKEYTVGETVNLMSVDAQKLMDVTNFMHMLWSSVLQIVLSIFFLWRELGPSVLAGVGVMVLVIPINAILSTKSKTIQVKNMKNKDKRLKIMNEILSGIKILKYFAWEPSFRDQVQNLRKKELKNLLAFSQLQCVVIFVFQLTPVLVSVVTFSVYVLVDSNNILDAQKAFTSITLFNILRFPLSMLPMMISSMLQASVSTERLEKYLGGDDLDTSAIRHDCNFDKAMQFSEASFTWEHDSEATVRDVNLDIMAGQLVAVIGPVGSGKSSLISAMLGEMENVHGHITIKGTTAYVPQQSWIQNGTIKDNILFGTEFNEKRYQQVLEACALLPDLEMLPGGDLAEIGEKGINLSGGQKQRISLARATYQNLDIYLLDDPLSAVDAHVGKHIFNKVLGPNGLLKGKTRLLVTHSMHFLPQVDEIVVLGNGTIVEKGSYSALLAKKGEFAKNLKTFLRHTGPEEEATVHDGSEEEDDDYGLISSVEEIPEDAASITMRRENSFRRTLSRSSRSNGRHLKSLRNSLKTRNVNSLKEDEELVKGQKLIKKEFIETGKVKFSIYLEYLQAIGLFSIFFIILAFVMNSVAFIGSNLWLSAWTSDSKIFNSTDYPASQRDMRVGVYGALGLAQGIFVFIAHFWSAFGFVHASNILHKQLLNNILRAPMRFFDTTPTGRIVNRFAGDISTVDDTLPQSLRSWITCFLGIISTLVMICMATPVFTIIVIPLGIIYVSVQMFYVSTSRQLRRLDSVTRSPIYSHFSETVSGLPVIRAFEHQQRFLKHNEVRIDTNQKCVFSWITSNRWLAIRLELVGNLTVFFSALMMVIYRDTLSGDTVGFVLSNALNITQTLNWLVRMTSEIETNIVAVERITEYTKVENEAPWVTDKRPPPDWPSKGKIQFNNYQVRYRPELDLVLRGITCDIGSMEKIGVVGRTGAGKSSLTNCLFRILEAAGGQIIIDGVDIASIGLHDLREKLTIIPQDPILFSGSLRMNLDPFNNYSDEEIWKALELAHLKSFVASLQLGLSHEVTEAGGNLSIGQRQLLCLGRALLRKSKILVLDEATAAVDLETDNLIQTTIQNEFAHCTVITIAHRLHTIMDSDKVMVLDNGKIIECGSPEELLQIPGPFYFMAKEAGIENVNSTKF

Nucleic Acid = experiment: Ratio of drug uptake in left median liver lobe to harderian gland in C57/BL6 mouse at 30 mg/kg, po after 2 hrs; format: ADME, organism-based; set-up: dose 30 mg/kg, route oral; conditions: in vivo
[22] = Drug uptake in C57/BL6 mouse cerebellum at 30 mg/kg, po after 2 hrs; format: ADME, organism-based; set-up: dose 30 mg/kg, route oral; conditions: read-out: Drug uptake
[23] = Drug uptake in C57/BL6 mouse heart at 30 mg/kg, po after 6 hrs; format: ADME, organism-based; set-up: dose 30 mg/kg, route oral; conditions: read-out: Drug uptake
Mus musculus [24] = experiment: Acute antidiabetic activity in high fat diet fed C57/BL6 mouse eDIO model assessed as increase in glucose clearance at 100 mg/kg, po administered 1 hr prior to glucose challenge by oGTT assay; format: functional
Mus musculus [25] = experiment: Inhibition of SCD activity in high sucrose/fat free diet fed C57/BL6 mouse liver assessed as reduction in conversion of [14C]stearic acid to [14C]oleic acid at 100 mg/kg, po; format: functional
[26] = Plasma concentration in C57/BL6 mouse at 30 mg/kg, po after 24 hrs; format: ADME, organism-based; set-up: dose 30 mg/kg, route oral

concentration at 24 h [1]: 5 nM
concentration at 2 h [2]: 177 nM
Ratio [3]: 15
concentration at 2 h [4]: 4390 nM
concentration at 24 h [5]: 12 nM
bioavailability [6]: 43%
concentration at 2 h [7]: 106 nM
IC50 (Stearoyl-CoA desaturase): 7 nM
concentration at 24 h [8]: 45 nM
concentration at 6 h [10]: 1920 nM
concentration at 2 h [11]: 389 nM
bioavailability [12]: 8%
concentration at 3 h [13]: 53000 nM
IC50 [14]: 4 nM
concentration at 24 h [15]: 29 nM
concentration at 24 h [16]: 32 nM
concentration at 6 h [17]: 626 nM
IC50 (Acyl-CoA desaturase 1): 175 nM
concentration at 6 h [19]: 98 nM
concentration at 24 h [20]: 32 nM
Activity [21]: Active
Ratio (Nucleic Acid): 11
concentration at 2 h [22]: 10 nM
concentration at 6 h [23]: 333 nM
concentration at 24 h [26]: 5 nM
Compound: O=C(O)c1cncc(-c2ccc(N3CCC(Oc4cc(F)ccc4Br)CC3)nn2)c1
inhibition (Mus musculus [9]): Dose-dependent effect
Ratio IC50 (HepG2): 34
Activity (Mus musculus [18]): 59%
Activity (Mus musculus [24]): 90%
inhibition in vivo at 100 mg/kg (Mus musculus [25]): 86%
